Assay results published in patent US11242407B2, “High-affinity anti-MERTK antibodies and uses thereof” (Rgenix, Inc., priority 2019, dated 2022).

How the values were obtained:
[1] = test system: MERTK-expressing M1 macrophages; experiment: Macrophage viability assay, M1; conditions: 4 days of treatment in differentiating medium
Description: Macrophage Viability Assay
(§1) Peripheral blood mononuclear cells (PBMCs) were prepared from buffy coats of healthy donors by Histopaque-1077 (Sigma, 10771) density gradient centrifugation at 250×g at room temperature for 30 min. The intermediate layer containing PBMCs was collected and cells were washed with PBS/2 mM EDTA three times. Human monocytes were isolated from PBMCs by magnetic separation using human Classical Monocyte Isolation Kit (Miltenyi, 130-117-337) according to the manufacturer's instructions. Eighty thousand monocytes per well were cultured on 96-well plates in 150 μL PBMC medium (RPMI 1640 medium (Gibco, 11875093) containing 10% human AB serum, 10% FBS, L-glutamine, penicillin, and streptomycin) at 37° C. with 5% CO2. Monocytes were treated with GM-CSF (20 ng/mL; Biolegend, 766102) or M-CSF (50 ng/mL; Biolegend, 574804) for 8 days to differentiate to M1 or M2 macrophages, respectively. […] On day 4, 100 μL of CellTiter-Glo 2.0 Cell Viability Assay reagent (Promega, G9241) was added to each well, incubated for 10 mins and the luminescence signal was detected with a GloMax Discover Microplate Reader (Promega). The mean relative luminometer units (RLU) from duplicate wells were plotted with GraphPad Prism.

[2] = test system: MERTK-expressing M2 macrophages; experiment: Macrophage viability assay, M2; conditions: 4 days of treatment in differentiating medium
Description: Macrophage Viability Assay
as §1

CCCCNc1ncc2c(-c3ccc(S(=O)(=O)N4CCOCC4)cc3)nn(C3CCC(O)CC3)c2n1 (centres unmarked) [UNC1062, reference compound]
viability of M1 macrophages (CellTiter-Glo 2.0) [1]: neither z10 nor z10-MMAE nor z10-SN-38 nor the MERTK inhibitor UNC1062 affect the viability | viability of M2 macrophages (CellTiter-Glo 2.0) [2]: neither z10 nor z10-MMAE nor z10-SN-38 nor the MERTK inhibitor UNC1062 affect the viability
